For data set [1], the system named is Mus musculus. Briefly: Antinociceptive activity in Kunming mouse model assessed as latency of tail withdrawal at 138.9 nmol/kg, sc measured for 60 mins by tail-flick test relative to control. Type of data set: functional. To be noted: 1 h.
Data set [2] deals with Mus musculus. Description: Antinociceptive activity in Kunming mouse model assessed as latency of tail withdrawal at 138.9 nmol/kg, sc measured for 30 mins by tail-flick test relative to control. Type of data set: functional. Conditions: 0.5 h.
Data set [3] addresses T1, Mu-type opioid receptor (Homo sapiens, UniProt P35372). Briefly: Agonist activity at human MOR expressed in CHO-K1 cells co-expressing G-alpha15 by calcium mobilization assay relative to control. Type of data set: functional, cell-based. To be noted: filed as agonist.
In data set [4] the test system is Mus musculus. Description: Antinociceptive activity in Kunming mouse model assessed as latency of tail withdrawal at 138.9 nmol/kg, sc measured for 120 mins by tail-flick test relative to control. Type of data set: functional. To be noted: 2 h.
The target in data set [5] is T2, Kappa-type opioid receptor (Homo sapiens, UniProt P41145). Description: Agonist activity at human KOR expressed in CHO-K1 cells co-expressing G-alpha15 by calcium mobilization assay. It counts as functional, cell-based. Conditions: cho-k1.
T2 sequence (P41145 whole entry): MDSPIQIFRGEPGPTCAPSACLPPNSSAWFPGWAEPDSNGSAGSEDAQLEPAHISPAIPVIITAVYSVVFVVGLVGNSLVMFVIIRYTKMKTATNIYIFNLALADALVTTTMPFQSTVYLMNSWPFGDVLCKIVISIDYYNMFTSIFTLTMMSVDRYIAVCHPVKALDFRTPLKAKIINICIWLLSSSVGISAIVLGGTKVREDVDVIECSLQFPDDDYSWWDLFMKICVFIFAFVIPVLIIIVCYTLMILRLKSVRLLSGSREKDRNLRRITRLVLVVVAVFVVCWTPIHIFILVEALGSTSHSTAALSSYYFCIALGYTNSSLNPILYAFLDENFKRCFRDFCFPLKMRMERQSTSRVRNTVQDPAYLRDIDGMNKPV
Data set [6] has as its target T1, Mu-type opioid receptor. Briefly: Agonist activity at human MOR expressed in CHO-K1 cells co-expressing G-alpha15 by calcium mobilization assay. Type of data set: functional, cell-based.
Data set [7] has as its target T3, Delta-type opioid receptor (Homo sapiens, UniProt P41143). Briefly: Agonist activity at human DOR expressed in CHO-K1 cells co-expressing G-alpha15 by calcium mobilization assay relative to control. It counts as functional, cell-based. To be noted: filed as agonist.
Data set [8] deals with T3, Delta-type opioid receptor. Briefly: Agonist activity at human DOR expressed in CHO-K1 cells co-expressing G-alpha15 by calcium mobilization assay. Type of data set: functional, cell-based.
The target of data set [9] is T2, Kappa-type opioid receptor. Briefly: Agonist activity at human KOR expressed in CHO-K1 cells co-expressing G-alpha15 by calcium mobilization assay relative to control. Conditions: filed as agonist. It counts as functional, cell-based.
The subject of data set [10] is Mus musculus. Description: Antinociceptive activity in Kunming mouse model assessed as latency of tail withdrawal at 138.9 nmol/kg, sc measured for 10 mins by tail-flick test relative to control. It counts as functional.
Data set [11] in a line: Toxicity in Kunming mouse model assessed as effect on locomotor co-ordination at 139 nmol/kg, sc measured for 10 to 40 mins by rotarod test. It counts as organism-based. Conditions: in vivo, time 10-40 min.
Data set [12] is described as follows: Stability in mouse plasma assessed as half life at 0.01 mol/L measured for 72 hrs by RP-HPLC analysis. It counts as ADME, cell-free.
The nature of data set [13]: Selectivity ratio of ED50 for inhibition of gastrointestinal motility in fasted Kunming mouse model treated subcutaneously to ED50 for antinociceptive activity in Kunming mouse model administered subcutaneously measured for 5 to 15 mins by acetic acid-induced writhing test. It counts as toxicity. Conditions: in vivo, route sc, read-out: Ratio ED50.
Data set [14] can be described thus: Selectivity ratio of ED50 for inhibition of gastrointestinal motility in fasted Kunming mouse model treated subcutaneously to ED50 for antinociceptive activity in Kunming mouse model administered subcutaneously by tail-flick test. Type of data set: toxicity. Conditions: in vivo, route sc, read-out: Ratio ED50.
A short description of data set [15]: Toxicity in Kunming mouse model assessed as effect on locomotor co-ordination at 13.8 nmol/kg, sc measured for 10 to 40 mins by rotarod test. It counts as organism-based. Conditions: in vivo, time 10-40 min.
For data set [16], the system named is Mus musculus. Description: Antinociceptive activity in Kunming mouse model assessed as latency of tail withdrawal at 164.1 nmol/kg, sc measured for 60 mins by tail-flick test relative to control. It counts as functional. Conditions: 1 h.
Data set [17] relates to Mus musculus. Briefly: Antinociceptive activity in Kunming mouse model assessed as latency of tail withdrawal at 164.1 nmol/kg, sc measured for 30 mins by tail-flick test relative to control. It counts as functional. To be noted: 0.5 h.
For data set [18], the system named is Mus musculus. Description: Antinociceptive activity in Kunming mouse model assessed as latency of tail withdrawal at 164.1 nmol/kg, sc measured for 120 mins by tail-flick test relative to control. Type of data set: functional. To be noted: 2 h.
For data set [19], the system named is Mus musculus. Description: Antinociceptive activity in Kunming mouse model assessed as latency of tail withdrawal at 164.1 nmol/kg, sc measured for 10 mins by tail-flick test relative to control. Type of data set: functional.
For data set [20], the system named is Mus musculus. Briefly: Antinociceptive activity in Kunming mouse model assessed as latency of tail withdrawal at 15007 nmol/kg, sc measured for 60 mins by tail-flick test relative to control. Conditions: 1 h. It counts as functional.
Data set [21] deals with Mus musculus. Description: Antinociceptive activity in Kunming mouse model assessed as latency of tail withdrawal at 15007 nmol/kg, sc measured for 10 mins by tail-flick test relative to control. It counts as functional.
In data set [22] the test system is Mus musculus. Briefly: Antinociceptive activity in Kunming mouse model assessed as latency of tail withdrawal at 15007 nmol/kg, sc measured for 120 mins by tail-flick test relative to control. It counts as functional. To be noted: 2 h.
For data set [23], the system named is Mus musculus. Briefly: Antinociceptive activity in Kunming mouse model assessed as latency of tail withdrawal at 15007 nmol/kg, sc measured for 30 mins by tail-flick test relative to control. Type of data set: functional. To be noted: 0.5 h.
Data set [24] relates to Mus musculus. Description: Antinociceptive activity in Kunming mouse model assessed as latency of tail withdrawal at 14157 nmol/kg, sc measured for 30 mins by tail-flick test relative to control. It counts as functional. To be noted: 0.5 h.
Data set [25] relates to Mus musculus. Briefly: Antinociceptive activity in Kunming mouse model assessed as latency of tail withdrawal at 14157 nmol/kg, sc measured for 60 mins by tail-flick test relative to control. Type of data set: functional. To be noted: 1 h.
For data set [26], the system named is Mus musculus. Briefly: Antinociceptive activity in Kunming mouse model assessed as latency of tail withdrawal at 14157 nmol/kg, sc measured for 120 mins by tail-flick test relative to control. Type of data set: functional. Conditions: 2 h.
Data set [27] has as its system Mus musculus. Briefly: Antinociceptive activity in Kunming mouse model assessed as latency of tail withdrawal at 14157 nmol/kg, sc measured for 10 mins by tail-flick test relative to control. Type of data set: functional.
In data set [28] the test system is Mus musculus. Description: Antinociceptive activity in Kunming mouse model assessed as latency of tail withdrawal at 1.4 nmol/kg, sc measured for 120 mins by tail-flick test relative to control. Type of data set: functional. To be noted: 2 h.
The test system of data set [29] is Mus musculus. Description: Antinociceptive activity in Kunming mouse model assessed as latency of tail withdrawal at 1.4 nmol/kg, sc measured for 10 mins by tail-flick test relative to control. It counts as functional.
The subject of data set [30] is Mus musculus. Briefly: Inhibition of gastrointestinal motility in fasted Kunming mouse model treated subcutaneously for 15 mins followed by charcoal-gum arabic treatment measured after 30 mins. It counts as functional. Conditions: 0.75 h, route sc, time 45 min.
For data set [31], the system named is Mus musculus. Briefly: Antinociceptive activity in Kunming mouse model assessed as latency of tail withdrawal at 1.4 nmol/kg, sc measured for 60 mins by tail-flick test relative to control. It counts as functional. Conditions: 1 h.
Data set [32] has as its system Mus musculus. Briefly: Antinociceptive activity in Kunming mouse model administered subcutaneously measured for 5 to 15 mins by acetic acid-induced writhing test. It counts as functional. Conditions: route sc, time 5-15 min.
In data set [33] the test system is Mus musculus. Description: Antinociceptive activity in Kunming mouse model administered subcutaneously by tail-flick test. It counts as functional. To be noted: route sc.
Data set [34] concerns Mus musculus. Briefly: Antinociceptive activity in Kunming mouse model administered orally by tail-flick test. Type of data set: functional. Conditions: route po.
Data set [35] deals with Mus musculus. Description: Antinociceptive activity in Kunming mouse model assessed as latency of tail withdrawal at 1.4 nmol/kg, sc measured for 30 mins by tail-flick test relative to control. Type of data set: functional. To be noted: 0.5 h.

pEC50: −log10 of the molar value.

T3 sequence (P41143 whole entry): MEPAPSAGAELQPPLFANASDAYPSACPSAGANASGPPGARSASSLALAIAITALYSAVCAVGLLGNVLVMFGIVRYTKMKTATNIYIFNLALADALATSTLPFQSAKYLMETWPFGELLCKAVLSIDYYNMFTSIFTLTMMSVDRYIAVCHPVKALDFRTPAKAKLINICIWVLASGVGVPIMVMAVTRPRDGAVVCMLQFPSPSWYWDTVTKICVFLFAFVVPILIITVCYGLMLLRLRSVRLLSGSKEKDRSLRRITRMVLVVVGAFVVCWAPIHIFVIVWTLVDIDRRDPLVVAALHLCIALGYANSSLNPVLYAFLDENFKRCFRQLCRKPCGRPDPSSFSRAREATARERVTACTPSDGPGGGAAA
T1 sequence (P35372 whole entry): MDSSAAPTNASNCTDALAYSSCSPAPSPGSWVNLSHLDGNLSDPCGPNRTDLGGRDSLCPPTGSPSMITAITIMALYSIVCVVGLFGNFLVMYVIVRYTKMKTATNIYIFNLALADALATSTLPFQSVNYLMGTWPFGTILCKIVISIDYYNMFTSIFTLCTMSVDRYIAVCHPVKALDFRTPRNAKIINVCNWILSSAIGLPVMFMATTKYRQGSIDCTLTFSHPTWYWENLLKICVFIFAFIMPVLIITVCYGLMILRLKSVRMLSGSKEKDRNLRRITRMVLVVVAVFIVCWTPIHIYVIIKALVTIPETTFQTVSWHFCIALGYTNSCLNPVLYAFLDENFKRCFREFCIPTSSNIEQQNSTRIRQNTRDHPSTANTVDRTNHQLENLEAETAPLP

As to `NC(=O)[C@H]1CCCCN1C(=O)[C@H]1CC(=O)NCCCC[C@@H](NC(=O)[C@@H](N)Cc2ccc(O)cc2)C(=O)NCC(=O)N[C@@H](Cc2ccccc2)C(=O)N1`, the MPE amounted to 61.4% in [1], 86.8% in [2], 26.7% in data set [4] and 59.6% in data set [10]. Moreover, the values for the Emax in data set [3], in [7] and in data set [9] were 99.6%, 95.4% and 68.7%, respectively. Moreover, the pEC50 in [5] was 5.64; in data set [6] (cho-k1), 8.31; in data set [8] (cho-k1), 9.70.

On to `CN1C(=O)CNC(=O)[C@H](NC(=O)[C@@H](N)Cc2ccc(O)cc2)CCCCNC(=O)C[C@@H](C(=O)N2CCC[C@@H]2C(N)=O)NC(=O)[C@@H]1Cc1ccccc1`, for which the Activity entry in data set [11] was “Non-Toxic”. Also, the negative logarithm of the EC50 (pEC50) in data set [5] was 6.30; in data set [6] (cho-k1), 8.60; in data set [8] (cho-k1), 7.76. The half-life at 0.01 mol/L in [12] is 21.1 h. The selectivity ratio in [13] amounted to 13; in data set [14], 54.

`NC(=O)[C@H]1CCCN1C(=O)[C@@H]1CC(=O)NCCCC[C@@H](NC(=O)[C@@H](N)Cc2ccc(O)cc2)C(=O)NCC(=O)N[C@@H](Cc2ccc(F)cc2)C(=O)N1` [listing 1 of 2 here]: the pEC50 is 7.04 in [5], 9.05 in data set [6] (cho-k1) and 9.22 in data set [8] (cho-k1). Moreover, in [15], the Activity result was “Non-Toxic”. In addition, in data set [12], the half-life at 0.01 mol/L was 53.5 h. The selectivity ratio amounted to 22 in data set [13] and 55 in data set [14].

Turning to `NC(=O)[C@@H]1CC(=O)NCCCC[C@@H](NC(=O)[C@@H](N)Cc2ccc(O)cc2)C(=O)NCC(=O)N[C@@H](Cc2ccccc2)C(=O)N1`, the MPE in data set [16] was 71.9%; in [17] it was 95.4%; in [18], 43.8%; in data set [19] it was 70.7%.

Take `NC(=O)CNC(=O)[C@@H]1CC(=O)NCCCC[C@@H](NC(=O)[C@@H](N)Cc2ccc(O)cc2)C(=O)NCC(=O)N[C@@H](Cc2ccccc2)C(=O)N1`: the MPE in data set [20] was found to be 74.1%; in data set [21] it was 73.4%; in data set [22] it was 43.1%; in data set [23] it was 92.5%.

On to `N[C@@H](Cc1ccc(O)cc1)C(=O)N[C@@H]1CCCCNC(=O)C[C@H](C(=O)N2CCC[C@H]2C(=O)O)NC(=O)[C@H](Cc2ccccc2)NC(=O)CNC1=O`, for which the maximal effect (Emax) in data set [3] came out at 94.8%; in [7], 109%. The values for the pEC50 in data set [6] and in data set [8] were 8.42 and 8.48, respectively. The MPE was found to be 97.4% in data set [24], 77% in data set [25], 37.3% in [26] and 65% in data set [27]. Moreover, the half-life at 0.01 mol/L in data set [12] is 23 h.

For `NC(=O)[C@H]1CCCN1C(=O)[C@@H]1CC(=O)NCCCC[C@@H](NC(=O)[C@@H](N)Cc2ccc(O)cc2)C(=O)NCC(=O)N[C@@H](Cc2ccc(F)cc2)C(=O)N1` [listing 2 of 2 here], the MPE worked out at 34.3% in [28], 59.2% in data set [29], 84.1% in data set [31] and 93.1% in data set [35]. Moreover, the ED50 in data set [30] came out at 0.0044 µmol/kg; in [32] it was 0.0002 µmol/kg; in data set [33], 8e-05 µmol/kg; in data set [34], 9e-05 µmol/kg.

These data come from ChEMBL document CHEMBL5532665 (J Med Chem, 2024).
